Measured values reported in ChEMBL document CHEMBL5291721, “A preclinical secondary pharmacology resource illuminates target-adverse drug reaction associations of marketed drugs” (Nat Commun, 2023).

What was measured:
Histamine H2 receptor = Histamine H2 receptor (Homo sapiens, UniProt P25021); type: functional, cell-based
[1] = biological target: Sodium-dependent noradrenaline transporter (Homo sapiens, UniProt P23975)
[2] = biological target: Voltage-dependent L-type calcium channel subunit alpha-1C (Rattus norvegicus, UniProt P22002); type: functional
Melanocortin receptor 4 = Melanocortin receptor 4 (Homo sapiens, UniProt P32245)
D(3) dopamine receptor = D(3) dopamine receptor (Homo sapiens, UniProt P35462)
[3] = biological target: T1, Cholecystokinin receptor type A (Homo sapiens, UniProt P32238)
T1 sequence (P32238 whole entry): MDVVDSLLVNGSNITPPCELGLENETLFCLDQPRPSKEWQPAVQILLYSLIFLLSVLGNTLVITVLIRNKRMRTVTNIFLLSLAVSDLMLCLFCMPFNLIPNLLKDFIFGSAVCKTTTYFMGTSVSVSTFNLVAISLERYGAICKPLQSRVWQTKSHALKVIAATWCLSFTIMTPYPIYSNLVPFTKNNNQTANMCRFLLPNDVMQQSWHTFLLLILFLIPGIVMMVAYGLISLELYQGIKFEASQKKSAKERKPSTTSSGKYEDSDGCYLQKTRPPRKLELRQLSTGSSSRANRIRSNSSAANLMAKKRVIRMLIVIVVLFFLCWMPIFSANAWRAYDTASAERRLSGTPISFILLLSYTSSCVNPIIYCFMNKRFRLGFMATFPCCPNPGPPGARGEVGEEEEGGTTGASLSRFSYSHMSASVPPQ

[4] = biological target: Beta-2 adrenergic receptor (Homo sapiens, UniProt P07550)
Thromboxane A2 receptor = biological target: T2, Thromboxane A2 receptor (Homo sapiens, UniProt P21731)
T2 sequence (P21731 whole entry): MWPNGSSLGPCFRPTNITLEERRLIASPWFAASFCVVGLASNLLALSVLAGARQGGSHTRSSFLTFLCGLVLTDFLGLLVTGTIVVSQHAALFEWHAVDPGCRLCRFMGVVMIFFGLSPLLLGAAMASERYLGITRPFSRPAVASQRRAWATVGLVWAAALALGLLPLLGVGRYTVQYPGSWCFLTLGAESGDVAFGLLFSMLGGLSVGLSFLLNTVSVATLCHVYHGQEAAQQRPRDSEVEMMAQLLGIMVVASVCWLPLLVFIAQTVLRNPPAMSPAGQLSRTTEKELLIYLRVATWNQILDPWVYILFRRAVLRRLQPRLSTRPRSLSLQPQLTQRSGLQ

[5] = biological target: T3, Alpha-2A adrenergic receptor (Homo sapiens, UniProt P08913); type: functional, cell-based
T3 sequence (P08913 whole entry): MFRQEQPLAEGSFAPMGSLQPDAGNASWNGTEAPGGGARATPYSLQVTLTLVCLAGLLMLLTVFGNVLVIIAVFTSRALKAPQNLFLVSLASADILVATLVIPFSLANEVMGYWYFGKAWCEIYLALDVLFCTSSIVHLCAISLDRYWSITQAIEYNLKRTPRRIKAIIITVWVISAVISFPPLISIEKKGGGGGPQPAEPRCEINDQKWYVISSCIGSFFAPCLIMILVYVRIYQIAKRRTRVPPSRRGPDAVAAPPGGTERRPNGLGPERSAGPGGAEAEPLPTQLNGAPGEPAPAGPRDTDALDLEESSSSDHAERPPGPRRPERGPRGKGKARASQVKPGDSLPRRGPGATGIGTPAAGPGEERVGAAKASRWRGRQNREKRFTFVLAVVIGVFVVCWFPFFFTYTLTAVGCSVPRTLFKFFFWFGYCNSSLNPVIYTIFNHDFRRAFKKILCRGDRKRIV

[6] = biological target: Glutamate receptor ionotropic, NMDA 1 (Rattus norvegicus, UniProt P35439)
Endothelin-1 receptor = biological target: T4, Endothelin-1 receptor (Homo sapiens, UniProt P25101)
T4 sequence (P25101 whole entry): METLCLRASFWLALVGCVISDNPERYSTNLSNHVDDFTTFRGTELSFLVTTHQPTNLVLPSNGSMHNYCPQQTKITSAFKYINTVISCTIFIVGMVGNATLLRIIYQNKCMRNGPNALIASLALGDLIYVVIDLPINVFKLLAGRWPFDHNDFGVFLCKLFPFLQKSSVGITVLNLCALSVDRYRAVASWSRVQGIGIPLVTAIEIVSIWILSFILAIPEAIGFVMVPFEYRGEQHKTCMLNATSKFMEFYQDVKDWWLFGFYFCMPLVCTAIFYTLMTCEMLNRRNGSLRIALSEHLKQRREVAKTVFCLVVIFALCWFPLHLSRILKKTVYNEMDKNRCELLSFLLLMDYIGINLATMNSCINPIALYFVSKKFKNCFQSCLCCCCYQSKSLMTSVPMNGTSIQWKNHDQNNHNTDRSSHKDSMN

[7] = biological target: T5, Type-1 angiotensin II receptor (Homo sapiens, UniProt P30556)
T5 sequence (P30556 whole entry): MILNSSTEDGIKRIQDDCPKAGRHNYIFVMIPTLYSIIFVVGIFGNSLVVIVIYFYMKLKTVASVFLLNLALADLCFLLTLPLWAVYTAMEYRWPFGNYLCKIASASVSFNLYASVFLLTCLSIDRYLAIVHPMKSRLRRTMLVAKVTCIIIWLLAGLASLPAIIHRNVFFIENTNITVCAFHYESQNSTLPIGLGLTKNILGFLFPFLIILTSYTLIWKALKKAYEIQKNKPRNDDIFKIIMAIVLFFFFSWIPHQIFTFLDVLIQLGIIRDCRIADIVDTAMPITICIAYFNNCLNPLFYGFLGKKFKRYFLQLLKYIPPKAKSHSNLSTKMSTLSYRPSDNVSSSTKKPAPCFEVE
Further: assay procedure not described here.

Melanocortin receptor 4, sequence (P32245 whole entry): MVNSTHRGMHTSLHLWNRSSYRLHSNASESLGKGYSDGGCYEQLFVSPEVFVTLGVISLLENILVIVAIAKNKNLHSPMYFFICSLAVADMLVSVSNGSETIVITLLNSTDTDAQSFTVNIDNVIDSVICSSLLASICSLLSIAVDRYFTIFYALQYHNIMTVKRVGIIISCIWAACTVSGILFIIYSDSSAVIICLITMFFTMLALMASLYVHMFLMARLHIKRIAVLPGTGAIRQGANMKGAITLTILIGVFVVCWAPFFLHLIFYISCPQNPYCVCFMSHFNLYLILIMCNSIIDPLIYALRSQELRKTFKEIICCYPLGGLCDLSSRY
Histamine H2 receptor, sequence (P25021 whole entry): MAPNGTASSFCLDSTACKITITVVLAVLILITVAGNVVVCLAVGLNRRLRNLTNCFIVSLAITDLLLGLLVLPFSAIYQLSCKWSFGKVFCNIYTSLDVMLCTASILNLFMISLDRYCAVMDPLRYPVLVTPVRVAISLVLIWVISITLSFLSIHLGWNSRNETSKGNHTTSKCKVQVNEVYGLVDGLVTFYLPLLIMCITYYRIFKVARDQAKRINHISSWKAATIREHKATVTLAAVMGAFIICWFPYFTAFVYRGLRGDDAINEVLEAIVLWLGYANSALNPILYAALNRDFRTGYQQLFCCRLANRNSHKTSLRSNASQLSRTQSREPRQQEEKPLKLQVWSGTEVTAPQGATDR
D(3) dopamine receptor, sequence (P35462 whole entry): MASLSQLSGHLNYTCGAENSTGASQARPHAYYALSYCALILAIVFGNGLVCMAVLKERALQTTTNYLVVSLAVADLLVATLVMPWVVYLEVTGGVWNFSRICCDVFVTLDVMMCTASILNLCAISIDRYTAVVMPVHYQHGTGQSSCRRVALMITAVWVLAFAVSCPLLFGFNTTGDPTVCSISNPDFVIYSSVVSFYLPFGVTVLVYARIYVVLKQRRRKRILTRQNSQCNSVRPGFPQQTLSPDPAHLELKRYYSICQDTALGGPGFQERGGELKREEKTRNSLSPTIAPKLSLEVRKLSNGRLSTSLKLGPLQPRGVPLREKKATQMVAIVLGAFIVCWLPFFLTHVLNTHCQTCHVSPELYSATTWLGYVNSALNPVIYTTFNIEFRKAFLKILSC
Beta-2 adrenergic receptor, sequence (P07550 whole entry): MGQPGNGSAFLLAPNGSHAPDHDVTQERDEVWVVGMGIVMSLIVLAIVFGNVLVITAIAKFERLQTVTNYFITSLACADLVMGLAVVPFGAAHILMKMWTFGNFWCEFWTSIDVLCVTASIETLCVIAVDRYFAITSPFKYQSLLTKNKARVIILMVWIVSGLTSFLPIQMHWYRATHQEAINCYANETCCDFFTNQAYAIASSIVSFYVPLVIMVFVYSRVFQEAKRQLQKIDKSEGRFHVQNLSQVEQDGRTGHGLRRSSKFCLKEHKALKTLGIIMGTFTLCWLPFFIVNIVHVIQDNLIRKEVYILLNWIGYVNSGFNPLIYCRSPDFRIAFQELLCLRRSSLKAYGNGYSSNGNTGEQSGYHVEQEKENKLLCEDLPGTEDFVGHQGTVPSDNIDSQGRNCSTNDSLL
Voltage-dependent L-type calcium channel subunit alpha-1C, sequence (P22002 whole entry): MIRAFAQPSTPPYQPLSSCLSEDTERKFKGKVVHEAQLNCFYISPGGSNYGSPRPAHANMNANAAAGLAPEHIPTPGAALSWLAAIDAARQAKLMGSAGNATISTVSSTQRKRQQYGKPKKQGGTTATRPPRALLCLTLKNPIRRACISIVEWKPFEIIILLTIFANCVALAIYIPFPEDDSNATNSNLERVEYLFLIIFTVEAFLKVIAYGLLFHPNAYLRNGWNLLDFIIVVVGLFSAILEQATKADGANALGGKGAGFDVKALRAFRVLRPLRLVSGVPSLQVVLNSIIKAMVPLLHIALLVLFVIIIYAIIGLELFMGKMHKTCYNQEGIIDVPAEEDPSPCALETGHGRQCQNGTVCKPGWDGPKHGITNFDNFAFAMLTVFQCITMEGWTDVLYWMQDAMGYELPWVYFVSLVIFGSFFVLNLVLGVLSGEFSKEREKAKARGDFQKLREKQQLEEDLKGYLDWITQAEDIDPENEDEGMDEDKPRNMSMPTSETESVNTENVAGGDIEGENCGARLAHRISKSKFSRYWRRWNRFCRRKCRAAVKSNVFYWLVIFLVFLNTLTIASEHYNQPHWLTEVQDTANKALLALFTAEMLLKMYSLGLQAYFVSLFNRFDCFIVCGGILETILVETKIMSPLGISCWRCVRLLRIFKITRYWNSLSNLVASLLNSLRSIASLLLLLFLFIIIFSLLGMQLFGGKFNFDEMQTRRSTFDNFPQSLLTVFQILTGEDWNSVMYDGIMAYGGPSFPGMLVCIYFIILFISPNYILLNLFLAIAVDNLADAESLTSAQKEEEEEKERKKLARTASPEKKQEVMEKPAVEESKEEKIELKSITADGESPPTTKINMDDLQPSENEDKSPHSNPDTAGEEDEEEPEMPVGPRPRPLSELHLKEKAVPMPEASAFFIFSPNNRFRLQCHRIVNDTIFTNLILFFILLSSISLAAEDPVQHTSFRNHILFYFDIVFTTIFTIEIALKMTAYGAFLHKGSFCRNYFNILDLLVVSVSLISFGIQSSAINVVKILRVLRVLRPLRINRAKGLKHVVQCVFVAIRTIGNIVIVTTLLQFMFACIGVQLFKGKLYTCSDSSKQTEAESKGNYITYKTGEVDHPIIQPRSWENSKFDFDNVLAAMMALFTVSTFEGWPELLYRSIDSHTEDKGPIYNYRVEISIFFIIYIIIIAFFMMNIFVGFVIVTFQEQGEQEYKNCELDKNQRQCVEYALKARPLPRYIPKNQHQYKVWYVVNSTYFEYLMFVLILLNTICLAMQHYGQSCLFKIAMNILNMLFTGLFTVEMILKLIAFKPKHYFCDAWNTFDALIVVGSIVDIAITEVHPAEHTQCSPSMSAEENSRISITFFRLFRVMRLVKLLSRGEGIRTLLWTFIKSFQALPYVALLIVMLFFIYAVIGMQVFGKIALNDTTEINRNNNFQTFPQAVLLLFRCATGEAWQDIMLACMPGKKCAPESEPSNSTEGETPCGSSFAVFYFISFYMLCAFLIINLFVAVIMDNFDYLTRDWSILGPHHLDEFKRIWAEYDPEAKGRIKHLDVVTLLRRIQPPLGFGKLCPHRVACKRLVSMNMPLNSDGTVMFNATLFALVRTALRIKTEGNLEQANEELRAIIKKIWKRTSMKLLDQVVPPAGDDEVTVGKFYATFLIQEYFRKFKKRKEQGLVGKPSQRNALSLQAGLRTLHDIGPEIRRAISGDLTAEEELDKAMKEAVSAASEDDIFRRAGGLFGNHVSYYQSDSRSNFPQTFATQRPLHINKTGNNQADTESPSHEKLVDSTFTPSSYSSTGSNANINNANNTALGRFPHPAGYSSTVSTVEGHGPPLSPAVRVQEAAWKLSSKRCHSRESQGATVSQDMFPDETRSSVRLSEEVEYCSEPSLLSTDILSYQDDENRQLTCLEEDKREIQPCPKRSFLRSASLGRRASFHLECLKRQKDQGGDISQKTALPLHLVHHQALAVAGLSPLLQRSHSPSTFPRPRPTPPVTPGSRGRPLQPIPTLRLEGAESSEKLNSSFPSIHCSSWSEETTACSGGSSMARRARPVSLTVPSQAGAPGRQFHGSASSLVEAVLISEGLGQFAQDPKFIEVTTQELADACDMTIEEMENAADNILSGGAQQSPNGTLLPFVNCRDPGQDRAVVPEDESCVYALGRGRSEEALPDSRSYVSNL
Sodium-dependent noradrenaline transporter, sequence (P23975 whole entry): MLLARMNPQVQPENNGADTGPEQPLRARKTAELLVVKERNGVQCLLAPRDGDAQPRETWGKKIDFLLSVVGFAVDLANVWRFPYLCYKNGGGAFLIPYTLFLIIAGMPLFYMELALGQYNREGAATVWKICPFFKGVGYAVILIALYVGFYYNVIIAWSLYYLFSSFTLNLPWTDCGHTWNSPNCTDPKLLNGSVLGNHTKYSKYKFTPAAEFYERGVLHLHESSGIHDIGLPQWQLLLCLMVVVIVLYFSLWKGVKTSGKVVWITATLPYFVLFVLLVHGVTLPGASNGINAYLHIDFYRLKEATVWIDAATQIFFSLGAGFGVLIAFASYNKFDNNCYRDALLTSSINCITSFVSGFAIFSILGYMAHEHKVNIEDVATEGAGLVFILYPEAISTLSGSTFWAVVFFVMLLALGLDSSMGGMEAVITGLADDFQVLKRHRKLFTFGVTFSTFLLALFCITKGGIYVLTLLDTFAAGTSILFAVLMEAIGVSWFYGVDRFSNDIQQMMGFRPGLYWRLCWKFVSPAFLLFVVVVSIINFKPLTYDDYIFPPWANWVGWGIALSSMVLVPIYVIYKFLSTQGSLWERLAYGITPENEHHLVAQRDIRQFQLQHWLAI

| SMILES | AC50 (Histamine H2 receptor) [µM] | AC50 [1] [µM] | AC50 [2] [µM] | AC50 (Melanocortin receptor 4) [µM] | AC50 (D(3) dopamine receptor) [µM] | AC50 [3] [µM] | AC50 [4] [µM] | AC50 (Thromboxane A2 receptor) [µM] | AC50 [5] [µM] | AC50 [6] [µM] | AC50 (Endothelin-1 receptor) [µM] | AC50 [7] [µM] |
| --- | --- | --- | --- | --- | --- | --- | --- | --- | --- | --- | --- | --- |
| CCCN(CCC)C(=O)Cc1c(-c2ccc(Cl)cc2)nc2ccc(Cl)cn12 [ALPIDEM] | > 30 | > 30 | > 30 | > 30 | > 30 | > 30 | > 30 | > 30 | > 30 | > 30 | > 10 | > 30 |
| CC(C(=O)O)c1ccc2c(c1)[nH]c1ccc(Cl)cc12 (stereo not drawn) [CARPROFEN] | > 10 | > 30 | > 10 | > 10 | > 30 | > 30 | > 10 | > 30 | > 10 | > 10 | > 10 | > 30 |
| COc1ccccc1OCCNCC(O)COc1cccc2[nH]c3ccccc3c12 (stereo not drawn) [CARVEDILOL] | > 10 | 3.99 | > 10 | 29.9 | 0.47 | > 30 |  | > 30 | > 30 | 5.09 | > 30 | 0.255 |
| O=C1CCc2cc(OCCCCc3nnnn3C3CCCCC3)ccc2N1 [CILOSTAZOL] | > 30 | > 30 | > 30 | > 30 | > 30 | > 30 | > 30 | > 30 | > 30 | > 30 | > 30 | > 30 |
| C[C@@H](Oc1cc(-c2cnn(C3CCNCC3)c2)cnc1N)c1c(Cl)ccc(F)c1Cl [CRIZOTINIB] |  | 7.96 | 1.56 | 19.8 | > 30 | > 30 | > 10 | > 30 | > 30 |  | > 30 | 29 |
| CC(C)N(CCC(C(N)=O)(c1ccccc1)c1ccccn1)C(C)C (stereo not drawn) [DISOPYRAMIDE] | > 10 | > 30 | > 10 | > 30 | > 30 | > 30 | > 30 | > 30 | > 10 | > 10 | > 30 | > 30 |
| C[C@H]1c2cccc(O)c2C(=O)C2=C(O)[C@]3(O)C(=O)C(C(N)=O)=C(O)[C@@H](N(C)C)[C@@H]3[C@@H](O)[C@@H]21 [DOXYCYCLINE] | > 10 | > 10 | > 10 | > 30 | > 10 | > 30 | > 10 | > 30 | > 10 | > 10 | > 30 | > 30 |
| CN1C(C(=O)Nc2ccccn2)=C(O)c2ccccc2S1(=O)=O [PIROXICAM] | > 30 | > 10 | > 10 | > 10 | > 30 | > 10 | > 10 | > 10 | > 10 | > 10 |  | > 30 |
| CO[C@H]1/C=C/O[C@@]2(C)Oc3c(C)c(O)c4c(O)c(c(/C=N/N5CCN(C)CC5)c(O)c4c3C2=O)NC(=O)/C(C)=C\C=C\[C@H](C)[C@H](O)[C@@H](C)[C@@H](O)[C@@H](C)[C@H](OC(C)=O)[C@@H]1C [RIFAMPIN] | > 30 | 20 | > 30 | > 30 | 11 | 17.1 | 29 | 17.4 | > 30 | > 30 | > 30 | 19.4 |
| CC(N)C12CC3CC(CC(C3)C1)C2 (stereo not drawn) [RIMANTADINE] | > 10 | > 10 | > 10 | > 10 | > 30 | > 10 | > 10 | > 10 | > 10 | > 10 |  | > 10 |
| CN(C)CCc1c[nH]c2ccc(Cn3cncn3)cc12 [RIZATRIPTAN] | > 30 | > 10 | > 10 | > 30 | > 30 | > 30 | > 10 | > 30 | > 30 | > 30 | > 30 | > 30 |
| N[C@@H](CC(=O)N1CCn2c(nnc2C(F)(F)F)C1)Cc1cc(F)c(F)cc1F [SITAGLIPTIN] |  | > 30 | > 10 | > 10 | > 30 | > 30 | > 10 | > 10 | > 30 | > 10 | > 30 | > 30 |
| Nc1ccc(S(=O)(=O)Nc2nccs2)cc1 [SULFATHIAZOLE] | > 10 | > 10 | > 10 | > 30 | > 10 | > 30 | > 10 | > 30 | > 10 | > 10 | > 30 | > 30 |
| O=C1C(CC[S+]([O-])c2ccccc2)C(=O)N(c2ccccc2)N1c1ccccc1 (stereo not drawn) [SULFINPYRAZONE] | > 10 | > 10 | > 10 | > 10 | > 30 | > 10 | > 10 | > 10 | > 30 | > 10 |  | > 10 |
| COc1cc2nc(N3CCN(C(=O)C4CCCO4)CC3)nc(N)c2cc1OC (stereo not drawn) [TERAZOSIN] | > 10 | > 10 |  | > 30 | > 30 | > 30 | > 10 | > 30 | > 30 | > 10 | > 30 | > 30 |
| CCCC(CCC)C(=O)O [VALPROIC ACID] |  | > 30 | > 10 | > 30 | 4.7 | > 30 | > 10 | > 30 | > 10 | > 10 | > 30 | > 30 |
